The text below walks through data of PubChem BioAssay (NCI).

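Interpolation was linear, between the two tested concentrations surrounding the appropriate level; five concentrations were tested over 48 hours in 96-well plates. TGI is the concentration that stops growth completely.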

Among the test systems are 786-0 renal; ACHN renal; BT-549 breast; CAKI-1 renal; DU-145 prostate; HCT-116 colon; K-562 leukemia; LOX IMVI melanoma; NCI-H23 lung; PC-3 prostate; SF-268 CNS; SK-MEL-2 melanoma; SW-620 colon; T-47D breast; TK-10 renal; UACC-257 melanoma; NCI-H226 lung.
What all share (test): inhibition of tumour cell growth, NCI panel, 48 h

Take `Cc1ccc(S(=O)(=O)NNC2(NS(=O)(=O)c3ccc(Cl)cc3)C(Cl)=C(Cl)C(=O)c3ccccc32)cc1` (configuration not stated): the TGI was 28.2 µM in the experiment on 786-0 renal; 29.7 µM in the experiment on ACHN renal; 29.1 µM in the experiment with BT-549 breast; 32.4 µM in the experiment on CAKI-1 renal; 33.2 µM with DU-145 prostate; 32.4 µM in the experiment with HCT-116 colon. Moreover, the TGI was determined as 36.1 µM with K-562 leukemia; 65.1 µM with LOX IMVI melanoma; 34.1 µM in the experiment on NCI-H23 lung; 33.5 µM with PC-3 prostate; 29.6 µM with SF-268 CNS; 50.6 µM in the experiment on SK-MEL-2 melanoma. In addition, the TGI in the experiment on SW-620 colon was 76 µM; in the experiment on T-47D breast, above 100 µM; with TK-10 renal, 30.5 µM; with UACC-257 melanoma, 32.6 µM.

With `O=S(=O)(O)c1ccc2c(N=Nc3ccc(F)cc3)c(O)c(S(=O)(=O)O)cc2c1`, the TGI in the experiment on 786-0 renal, in the experiment on ACHN renal, in the experiment with BT-549 breast, in the experiment on CAKI-1 renal, in the experiment with DU-145 prostate and with HCT-116 colon was above 100 µM each time. Further, the TGI with K-562 leukemia, with LOX IMVI melanoma, in the experiment on NCI-H23 lung, with PC-3 prostate, with SF-268 CNS and with SK-MEL-2 melanoma was above 100 µM throughout. The TGI in the experiment on SW-620 colon, with T-47D breast, with TK-10 renal and with UACC-257 melanoma was above 100 µM in each case.

In the case of `O=C(Cc1ccccc1)NNc1nc(NNC(=O)c2ccncc2)nc(Nc2cccc(Cl)c2)n1`, the TGI with 786-0 renal, with BT-549 breast, in the experiment with CAKI-1 renal, with DU-145 prostate, in the experiment on K-562 leukemia and in the experiment with LOX IMVI melanoma was above 10 µM in each case. The TGI with NCI-H23 lung, in the experiment on SF-268 CNS, in the experiment on SW-620 colon, with T-47D breast, with TK-10 renal and in the experiment on UACC-257 melanoma was above 10 µM each time.

As for `COc1ccc(C2(O)c3ccccc3C(=O)N(C)C2(O)c2ccc(OC)cc2)cc1` (configuration not stated), the TGI in the experiment on 786-0 renal, in the experiment on BT-549 breast, in the experiment with CAKI-1 renal, in the experiment on DU-145 prostate, with HCT-116 colon and in the experiment on K-562 leukemia was above 100 µM each time. Further, the TGI with LOX IMVI melanoma, with NCI-H23 lung, in the experiment on PC-3 prostate, in the experiment on SF-268 CNS, with SK-MEL-2 melanoma and in the experiment on SW-620 colon was above 100 µM throughout. Further, the TGI in the experiment on T-47D breast, with TK-10 renal and with UACC-257 melanoma was above 100 µM throughout.

As for `CN(C)CCn1c(=O)c2ccc3c4c(nn3CCN(C)C)c3cc(O)ccc3n(c1=O)c24`, the TGI worked out at 0.424 µM in the experiment with 786-0 renal; 0.689 µM in the experiment with ACHN renal; 3.66 µM in the experiment with BT-549 breast; 0.291 µM in the experiment with CAKI-1 renal; 1.08 µM in the experiment on HCT-116 colon; 1.56 µM in the experiment with K-562 leukemia. The TGI in the experiment with LOX IMVI melanoma is 0.101 µM; in the experiment on NCI-H226 lung, 1.44 µM; with NCI-H23 lung, 0.701 µM; in the experiment with PC-3 prostate, 2.98 µM; in the experiment on SF-268 CNS, 0.591 µM; in the experiment with SK-MEL-2 melanoma it was 0.576 µM. Besides, the TGI was 3.61 µM in the experiment with SW-620 colon, above 39.2 µM with T-47D breast, 0.837 µM with TK-10 renal and 1.16 µM in the experiment with UACC-257 melanoma.

With `C/C(=N\NC(=S)NC(C)(C)C)c1ccccn1`, the TGI in the experiment on 786-0 renal is 98.4 µM; in the experiment on BT-549 breast, above 100 µM; in the experiment with CAKI-1 renal, above 100 µM; in the experiment on DU-145 prostate, above 100 µM; with HCT-116 colon, above 100 µM; with LOX IMVI melanoma it was above 100 µM. For the same molecule, the TGI in the experiment with NCI-H226 lung is 16 µM; in the experiment on NCI-H23 lung it was above 100 µM; in the experiment with SF-268 CNS, above 87.8 µM; in the experiment on SK-MEL-2 melanoma, above 100 µM; in the experiment on SW-620 colon it was above 100 µM; in the experiment on T-47D breast it was 34.9 µM. The TGI with TK-10 renal and in the experiment with UACC-257 melanoma was above 100 µM throughout.

Regarding `CCOc1ncn(-c2ccc(NC(=S)NC34CC5CC(CC(C5)C3)C4)cc2)n1`, the TGI in the experiment with 786-0 renal, in the experiment with BT-549 breast, with DU-145 prostate, in the experiment with HCT-116 colon, in the experiment on K-562 leukemia and in the experiment on LOX IMVI melanoma was above 100 µM throughout. The TGI in the experiment with NCI-H23 lung, with PC-3 prostate, in the experiment with SF-268 CNS, with SW-620 colon, with T-47D breast and with TK-10 renal was above 100 µM throughout. The TGI in the experiment with UACC-257 melanoma was above 100 µM.

For `Oc1ccc(/C=C/c2ccc3cccc(O)c3n2)cc1O`, the TGI in the experiment with 786-0 renal was 50.9 µM; in the experiment on ACHN renal it was 20.7 µM; in the experiment with BT-549 breast, 4.03 µM; in the experiment with CAKI-1 renal it was above 100 µM; in the experiment with DU-145 prostate, 12.3 µM; in the experiment with HCT-116 colon, 14.5 µM. For the same molecule, the TGI in the experiment on K-562 leukemia is above 100 µM; in the experiment on LOX IMVI melanoma, 16.5 µM; in the experiment on PC-3 prostate, 67.6 µM; with SF-268 CNS it was above 100 µM; in the experiment on SK-MEL-2 melanoma it was 36 µM; in the experiment on SW-620 colon it was above 100 µM. Besides, the TGI in the experiment with T-47D breast is 6.52 µM; with TK-10 renal, 90.8 µM; with UACC-257 melanoma, 47.3 µM.

For the molecule `CC(C)CC(NC(=O)C(CCI)Cc1ccccc1)C(=O)Nc1ccccc1` (configuration not stated), the TGI is above 100 µM with 786-0 renal; above 100 µM in the experiment on ACHN renal; 66.5 µM in the experiment on BT-549 breast; above 100 µM in the experiment on CAKI-1 renal; above 100 µM in the experiment on DU-145 prostate; above 100 µM in the experiment with HCT-116 colon. The TGI in the experiment on K-562 leukemia, with LOX IMVI melanoma, in the experiment on NCI-H226 lung, with NCI-H23 lung, in the experiment on PC-3 prostate and with SK-MEL-2 melanoma was above 100 µM each time. Further, the TGI in the experiment on SW-620 colon, in the experiment with TK-10 renal and in the experiment with UACC-257 melanoma was above 100 µM each time.
